In patent publication US20210054393A1, “GENES FOR HORMONE-FREE PLANT REGENERATION” (priority 2018, published 2021):

System: Arabidopsis seedlings
Assay: Hormone-independent shoot regeneration of Arabidopsis seedlings after chemical induction of the transformed constructs
Assay type: in vivo, Arabidopsis thaliana
Experimental: For plant transformation, vector SHOOT REGENERATION was introduced into A. tumefaciens (strain C58C1.pMP90) by electroporation. Transformant A. tumefaciens were used to transform A. thaliana plants of the Col-0 ecotype by the floral dip method (Clough, 1998).
Seeds were surface sterilised by chlorin gas by the vapor sterilisation method (Lindsey, 2017). After sterilisation, the seeds were suspended in a 0.1% agarose solution, before being stratified at 4° C. in darkness for 48 hours. Subsequently, the seeds were plated on germination medium under sterile conditions. The seeds were plated on a fine nylon mesh (100 μm), which allowed for the contact with the medium without allowing seedlings to penetrate the mesh. The plates with the seedlings were sealed with surgical tape (3M, Micropore) to prevent desiccation. The plates were placed in upright position in a growth chamber (22° C., 120-150 μmol/m^2s with 16 h light/8 h dark photoperiodlight). The plates were left to grow in these circumstances for 5 days.
After 5 days of growth, the seedlings were transplanted under sterile conditions by transporting the mesh on which they were growing from the germination medium to the induction medium. The plates with the seedlings were sealed with surgical tape (3M, Micropore) to prevent desiccation. The plates were placed back in the growth chamber in upright position. The plates were left to grow in this condition for 14 days. Shoots started appearing in the second week of induction.
Plants transformed with the SHOOT REGENERATION vector (XVE-transactivated AmiRBR and AtWIND1; GVG-transactivated AtSHR, AtSCR, AtPLT1, AtPLT4, AtPLT5 and AtWOX5) were grown on medium containing 10 μM 17β-estradiol (EST: activation of XVE) and/or 10 μM dexamethasone (DEX: activation of GVG).
Plants transformed with the SHOOT REGENERATION-2 vector (XVE-transactivated AtWIND1; GVG-transactivated AtPLT1 and AtWOX5) were grown on medium containing 10 μM 17β-estradiol (EST: activation of XVE) and/or 10 μM dexamethasone (DEX: activation of GVG).

[1] = inducer on wild-type (non-transformed) seedlings, percentage of total number of seedlings tested

SMILES | green callus (inducer on wild-type (non-transformed) seedlings, percentage of the numbers with callus formation) | shoot regeneration (inducer on wild-type (non-transformed) seedlings, percentage of the numbers with green callus formation) | callus [1] | green callus [1] | root growth arrest [1] | shoot regeneration [1] | root growth arrest, callus formation or shoot regeneration (roots of non-transformed Arabidopsis, induced with 10 μM, result in words)
C[C@@H]1C[C@H]2[C@@H]3CCC4=CC(=O)C=C[C@]4(C)[C@@]3(F)[C@@H](O)C[C@]2(C)[C@@]1(O)C(=O)CO [DEX, dexamethasone] | 0% | 0% | 0% | 0% | 0% | 0% | 
C[C@]12CC[C@@H]3c4ccc(O)cc4CC[C@H]3[C@@H]1CC[C@@H]2O [estradiol, 17β-estradiol] |  |  |  |  |  |  | never showed any root growth arrest, callus formation or shoot regeneration
